“Also recorded” adds a separate entry of the source. Like-named read-outs stand apart in the source and are kept apart here.
How the values were obtained:
Type in all cases: biochemical
recombinant PI3Kδ kinase [1] = target: T1, recombinant PI3Kδ kinase (Homo sapiens, UniProt O00329); experiment: Cell free PI3Kδ kinase activity, ADP-Glo chemiluminescence assay
Source text: The chemiluminescence method was used to determine the inhibitory effect of the 15 hit compounds on PI3Kδ (Table 5). […] For 14317, the reason for its high activity was probably the long side chain on its guanine, which was the same as the reported PI3Kδ selective inhibitor Compound 1 (idelalisib) and Compound 7 (GNE-293). For Compounds 9 and 10, the reason the pyridazinone skeleton made them so active requires further study. Finally, the two compounds with the novel skeleton were selected for the subsequent molecular dynamics (MD) simulations. […]
The inhibitory activities of inhibitors against PI3Kδ were determined by the ADP-Glo assay. The recombinant PI3Kδ kinase was diluted to 2.2 μg/mL using reaction buffer (50 mM HEPES, pH 7.5, 10 mM MgCl2, 0.1 mg/mL BSA, 2 mM DTT, 1% DMSO), and ATP was diluted with reaction buffer (10 mM) to 250 μM, and the test compound and positive drug (idelalisib) were formulated into four concentration-gradient solutions (6 × 10^−2 M, 6 × 10^−4 M, 6 × 10^−6 M, 6 × 10^−8 M). The reaction was started by sequentially adding 2 μL of an ATP solution, 1 μL of a drug solution, and 2 μL of an enzyme solution in 96 wells. The assay was conducted for 1 h at 37 °C before the addition of 5 μL ADP-Glo reagent and incubation for 40 min at room temperature. A 10 μL amount of kinase detection reagent (Promega, Beijing, China) was added and incubated for 30 min at room temperature before the luminescence value was measured using a chemiluminescence module of a full-wavelength multi-function microplate reader (PerkinElmer, Singapore).

PI3Kα = PI3Kα (Homo sapiens, UniProt P42336); experiment: PI3K isoform selectivity, chemiluminescence kinase assay (α); conditions: isoform selectivity experiment
PI3Kβ = PI3Kβ (Homo sapiens, UniProt P42338); experiment: PI3K isoform selectivity, chemiluminescence kinase assay (β); conditions: isoform selectivity experiment
recombinant PI3Kδ kinase [2] = target: T1, recombinant PI3Kδ kinase; experiment: Cell free PI3Kδ kinase activity, ADP-Glo chemiluminescence assay; conditions: PI3Kδ versus α, β, γ
PI3Kγ = PI3Kγ (Homo sapiens, UniProt P48736); experiment: PI3K isoform selectivity, chemiluminescence kinase assay (γ); conditions: isoform selectivity experiment
[3] = 15 hit compounds from NCI database, chemiluminescence method, read-out: PI3Kδ IC50

T1 sequence (O00329 whole entry): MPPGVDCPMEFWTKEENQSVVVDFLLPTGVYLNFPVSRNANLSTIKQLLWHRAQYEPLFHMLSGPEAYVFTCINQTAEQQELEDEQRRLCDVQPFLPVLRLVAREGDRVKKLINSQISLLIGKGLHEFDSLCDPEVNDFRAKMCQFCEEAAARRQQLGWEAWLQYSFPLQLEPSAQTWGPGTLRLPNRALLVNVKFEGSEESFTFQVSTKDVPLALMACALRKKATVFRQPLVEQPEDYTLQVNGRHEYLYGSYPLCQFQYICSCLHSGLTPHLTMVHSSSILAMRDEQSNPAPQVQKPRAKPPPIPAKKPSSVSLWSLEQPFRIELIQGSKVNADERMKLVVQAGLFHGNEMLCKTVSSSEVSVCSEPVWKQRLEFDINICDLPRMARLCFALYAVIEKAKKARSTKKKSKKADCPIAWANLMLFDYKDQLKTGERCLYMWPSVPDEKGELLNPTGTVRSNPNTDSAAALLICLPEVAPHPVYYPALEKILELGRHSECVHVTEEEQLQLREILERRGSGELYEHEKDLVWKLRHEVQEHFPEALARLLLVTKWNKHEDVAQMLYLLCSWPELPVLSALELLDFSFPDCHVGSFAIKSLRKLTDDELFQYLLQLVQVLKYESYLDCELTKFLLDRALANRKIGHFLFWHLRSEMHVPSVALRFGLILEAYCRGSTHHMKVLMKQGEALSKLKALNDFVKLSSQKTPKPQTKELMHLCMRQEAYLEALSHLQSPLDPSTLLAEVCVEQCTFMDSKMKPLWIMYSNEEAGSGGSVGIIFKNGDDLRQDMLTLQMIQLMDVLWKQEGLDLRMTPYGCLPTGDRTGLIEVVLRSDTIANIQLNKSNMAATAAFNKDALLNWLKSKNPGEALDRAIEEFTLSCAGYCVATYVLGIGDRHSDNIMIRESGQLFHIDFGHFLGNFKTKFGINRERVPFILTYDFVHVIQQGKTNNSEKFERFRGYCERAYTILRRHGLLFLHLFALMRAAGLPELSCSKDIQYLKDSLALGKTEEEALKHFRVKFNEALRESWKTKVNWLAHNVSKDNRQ
T1 sequence (P27986 whole entry partner): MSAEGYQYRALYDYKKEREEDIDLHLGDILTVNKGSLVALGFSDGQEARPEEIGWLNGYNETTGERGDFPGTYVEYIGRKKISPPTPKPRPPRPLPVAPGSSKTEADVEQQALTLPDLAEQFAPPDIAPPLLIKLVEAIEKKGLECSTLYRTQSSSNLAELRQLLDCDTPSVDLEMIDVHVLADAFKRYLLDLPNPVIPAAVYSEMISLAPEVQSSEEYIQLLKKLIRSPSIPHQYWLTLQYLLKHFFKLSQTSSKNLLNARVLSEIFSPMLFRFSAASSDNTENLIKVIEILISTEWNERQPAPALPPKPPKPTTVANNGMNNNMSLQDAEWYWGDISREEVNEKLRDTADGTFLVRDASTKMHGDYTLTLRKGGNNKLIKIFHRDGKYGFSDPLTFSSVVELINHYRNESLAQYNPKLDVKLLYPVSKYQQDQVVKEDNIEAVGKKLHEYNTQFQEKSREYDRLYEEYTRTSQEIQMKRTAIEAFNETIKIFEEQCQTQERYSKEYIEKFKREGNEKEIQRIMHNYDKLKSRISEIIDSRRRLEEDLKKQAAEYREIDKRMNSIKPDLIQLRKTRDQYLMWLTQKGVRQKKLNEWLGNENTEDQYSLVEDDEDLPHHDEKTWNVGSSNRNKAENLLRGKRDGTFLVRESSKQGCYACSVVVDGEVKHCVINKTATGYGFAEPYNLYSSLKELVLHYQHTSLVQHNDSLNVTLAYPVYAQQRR
PI3Kγ, sequence (P48736 whole entry, canonical isoform): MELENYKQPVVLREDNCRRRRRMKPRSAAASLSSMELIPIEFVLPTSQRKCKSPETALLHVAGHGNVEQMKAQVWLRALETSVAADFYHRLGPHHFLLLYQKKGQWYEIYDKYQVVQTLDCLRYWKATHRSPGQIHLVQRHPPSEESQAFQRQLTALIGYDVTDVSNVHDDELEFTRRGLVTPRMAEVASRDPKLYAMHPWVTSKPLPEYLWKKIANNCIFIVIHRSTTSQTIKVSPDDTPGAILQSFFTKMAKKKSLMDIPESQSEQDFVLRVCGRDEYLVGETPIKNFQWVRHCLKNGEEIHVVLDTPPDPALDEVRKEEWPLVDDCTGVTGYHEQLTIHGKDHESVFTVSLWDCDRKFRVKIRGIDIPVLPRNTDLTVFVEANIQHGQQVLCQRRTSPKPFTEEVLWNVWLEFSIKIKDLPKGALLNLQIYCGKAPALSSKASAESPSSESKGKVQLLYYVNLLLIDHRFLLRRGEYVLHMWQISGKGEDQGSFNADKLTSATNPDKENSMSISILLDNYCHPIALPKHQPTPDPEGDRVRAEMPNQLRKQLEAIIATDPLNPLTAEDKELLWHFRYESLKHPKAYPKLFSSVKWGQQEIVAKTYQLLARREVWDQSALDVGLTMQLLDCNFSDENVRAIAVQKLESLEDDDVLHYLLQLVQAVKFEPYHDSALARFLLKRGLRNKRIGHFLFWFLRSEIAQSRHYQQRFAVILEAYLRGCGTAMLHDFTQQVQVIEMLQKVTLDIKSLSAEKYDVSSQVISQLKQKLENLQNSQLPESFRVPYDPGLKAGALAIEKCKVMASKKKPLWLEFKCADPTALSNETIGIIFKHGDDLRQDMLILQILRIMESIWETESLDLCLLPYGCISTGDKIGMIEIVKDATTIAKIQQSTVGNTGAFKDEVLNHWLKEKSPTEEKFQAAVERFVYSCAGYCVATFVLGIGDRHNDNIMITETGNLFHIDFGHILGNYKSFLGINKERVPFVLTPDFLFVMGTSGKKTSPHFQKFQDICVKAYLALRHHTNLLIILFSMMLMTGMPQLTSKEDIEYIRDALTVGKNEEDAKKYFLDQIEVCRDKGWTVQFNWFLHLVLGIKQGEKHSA
PI3Kβ, sequence (P42338 whole entry, canonical isoform): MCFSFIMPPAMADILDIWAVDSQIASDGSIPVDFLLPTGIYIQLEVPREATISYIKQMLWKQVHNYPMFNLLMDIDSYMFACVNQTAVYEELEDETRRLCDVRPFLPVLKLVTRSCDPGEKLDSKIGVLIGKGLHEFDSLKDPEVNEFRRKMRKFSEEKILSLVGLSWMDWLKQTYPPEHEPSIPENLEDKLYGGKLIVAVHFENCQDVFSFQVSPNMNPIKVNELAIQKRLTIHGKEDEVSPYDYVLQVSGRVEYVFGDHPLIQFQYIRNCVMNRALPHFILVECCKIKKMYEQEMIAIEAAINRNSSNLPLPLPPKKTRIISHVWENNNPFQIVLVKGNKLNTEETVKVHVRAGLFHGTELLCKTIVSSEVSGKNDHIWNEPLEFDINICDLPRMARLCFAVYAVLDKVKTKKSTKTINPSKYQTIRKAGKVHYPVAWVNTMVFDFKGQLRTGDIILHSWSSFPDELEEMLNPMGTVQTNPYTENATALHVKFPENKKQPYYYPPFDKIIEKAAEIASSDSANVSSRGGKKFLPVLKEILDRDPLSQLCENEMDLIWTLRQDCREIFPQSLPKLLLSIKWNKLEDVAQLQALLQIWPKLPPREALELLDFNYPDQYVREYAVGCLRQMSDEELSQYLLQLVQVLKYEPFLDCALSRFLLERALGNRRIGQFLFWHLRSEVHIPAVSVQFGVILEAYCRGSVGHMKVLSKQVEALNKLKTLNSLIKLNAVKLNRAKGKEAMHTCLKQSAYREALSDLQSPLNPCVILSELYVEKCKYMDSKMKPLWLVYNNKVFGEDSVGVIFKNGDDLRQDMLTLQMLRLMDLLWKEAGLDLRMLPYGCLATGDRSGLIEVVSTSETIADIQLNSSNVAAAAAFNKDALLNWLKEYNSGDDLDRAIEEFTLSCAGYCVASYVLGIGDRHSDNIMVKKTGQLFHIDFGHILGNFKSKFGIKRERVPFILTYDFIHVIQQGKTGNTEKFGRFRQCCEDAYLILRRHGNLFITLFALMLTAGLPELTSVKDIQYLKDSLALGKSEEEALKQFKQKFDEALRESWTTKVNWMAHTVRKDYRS
PI3Kβ, sequence (P27986 whole entry partner, canonical isoform): as the sequence (P27986 whole entry partner) above
PI3Kα, sequence (P42336 whole entry, species assumed, canonical isoform): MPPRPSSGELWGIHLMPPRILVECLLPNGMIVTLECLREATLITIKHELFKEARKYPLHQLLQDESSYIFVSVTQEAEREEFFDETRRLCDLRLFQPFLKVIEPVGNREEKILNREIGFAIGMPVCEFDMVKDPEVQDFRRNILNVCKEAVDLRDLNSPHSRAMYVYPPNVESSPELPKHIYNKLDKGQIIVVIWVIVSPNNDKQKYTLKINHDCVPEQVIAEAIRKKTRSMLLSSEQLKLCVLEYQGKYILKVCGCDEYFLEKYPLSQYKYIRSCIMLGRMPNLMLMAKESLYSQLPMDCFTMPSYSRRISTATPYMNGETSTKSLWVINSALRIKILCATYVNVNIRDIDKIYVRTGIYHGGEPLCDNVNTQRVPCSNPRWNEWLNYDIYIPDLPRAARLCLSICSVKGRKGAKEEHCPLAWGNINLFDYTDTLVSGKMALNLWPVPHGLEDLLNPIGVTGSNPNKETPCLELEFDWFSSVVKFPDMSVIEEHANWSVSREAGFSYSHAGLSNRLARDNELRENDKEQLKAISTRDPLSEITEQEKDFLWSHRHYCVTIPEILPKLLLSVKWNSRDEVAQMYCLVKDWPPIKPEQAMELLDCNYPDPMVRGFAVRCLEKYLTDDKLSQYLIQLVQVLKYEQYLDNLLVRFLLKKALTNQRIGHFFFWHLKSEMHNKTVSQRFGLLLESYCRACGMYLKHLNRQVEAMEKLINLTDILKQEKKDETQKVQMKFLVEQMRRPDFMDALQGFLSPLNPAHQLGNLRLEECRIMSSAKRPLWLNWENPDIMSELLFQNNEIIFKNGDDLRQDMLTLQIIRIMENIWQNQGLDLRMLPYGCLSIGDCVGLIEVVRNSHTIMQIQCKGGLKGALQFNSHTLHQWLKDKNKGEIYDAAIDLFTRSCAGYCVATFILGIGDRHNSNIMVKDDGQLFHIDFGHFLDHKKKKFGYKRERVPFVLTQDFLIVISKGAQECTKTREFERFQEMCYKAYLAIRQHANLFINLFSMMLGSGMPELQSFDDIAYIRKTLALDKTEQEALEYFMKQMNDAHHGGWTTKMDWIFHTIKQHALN
PI3Kα, sequence (P27986 whole entry partner, species assumed, canonical isoform): as the sequence (P27986 whole entry partner) above

SMILES	IC50 (recombinant PI3Kδ kinase [1]; [3]) [µM]	other results
CC/C(=N\Nc1cn[nH]c(=O)c1Br)c1ccccc1 [Compound 9]	72.2	–
C/C(=N\Nc1cn[nH]c(=O)c1Br)c1ccccc1 [Compound 10]	18.9	IC50 (PI3Kα): 75 µM; IC50 (PI3Kβ): 188 µM; PI3K isoform selectivity (recombinant PI3Kδ kinase [2]): significant selectivity; also recorded: high isoform selectivity; IC50 (PI3Kγ): 226 µM
CCN(CC)CCOc1nc2c(c(=O)n(C)c(=O)n2C)n1C [Compound 14317]	28.1	–
CCOC(=O)c1cc(Sc2ccccc2)nc2ccccc12 [Compound 25679]	289	–
COc1c2c(c3c(c1OC)c(=O)c1ccccc1n3C)OCO2 [Compound 34758]	481	–
CCOC(=O)Nc1ccc2c(c1Cl)C(=O)c1ccccc1C2=O [Compound 39951]	522	–
CC(=O)Nc1cc2c(cc1Cl)-c1ccc(Cl)cc1C2=O [Compound 57442]	500	–
CC(=O)Nc1cc2c(cc1Br)-c1ccc(F)cc1C2=O [Compound 73075]	248	–
O=C1c2ccccc2-c2cc(Br)c(NC(=O)C(F)(F)F)cc21 [Compound 80144]	809	–
COc1cc(OC)c(OC)cc1/C=C/c1ccnc2ccccc12 [Compound 80756]	192	–
CSc1cc2c(cc1NC(C)=O)C(=O)c1cc(F)ccc1-2 [Compound 109638]	169	–
O=c1cc(N2CCOCC2)oc2c(-c3ccccc3)cccc12 [LY294002, reference compound]	–	IC50 (recombinant PI3Kδ kinase [1]; read-out: PI3K IC50 δ): 3.49 µM

From article PMC6928688, “Identification of Novel PI3Kδ Selective Inhibitors by SVM-Based Multistage Virtual Screening and Molecular Dynamics Simulations” (International Journal of Molecular Sciences, 2019)
